Data: the METLIN SMRT retention time set (Domingo-Almenara et al. 2019)

Assay: gradient 5% acetonitrile 3 min, to 50% in 2 min, to 85% in 15 min, held 3 min, 100 µL/min
Settings: column: Zorbax Extend-C18 2.1 x 50 mm; eluents: water / acetonitrile, 0.1% formic acid
Method in brief: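 Retention times of pure standards were taken from adduct peaks that were selected by computer and manually inspected. Over 3 months, mixtures of ~100 molecules were run by HPLC–quadrupole time-of-flight mass spectrometry in positive and negative ionization mode. The Zorbax Extend-C18 column (2.1 × 50 mm, 1.8 μm) ran at 100 μL/min in water and acetonitrile, each containing 0.1% formic acid, with 40 μL dead volume and 900 μL dwell volume.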

| SMILES | RP-LC retention time |
| --- | --- |
| CCOC(=O)c1ccc(NC(=O)Nc2cccs2)cc1 | 888 s |
| CCn1c(=O)c(C)nc2cc(-c3noc(-c4cccc(C)c4)n3)ccc21 | 1190 s |
| CCSc1nnc(-c2nn(C)c3c2CN(C(=O)c2ccc(F)cc2)CC3)n1C | 750 s |
| O=C(Cc1c[nH]c2ccccc12)N1CCC(Oc2ccc(-c3noc(C4CC4)n3)cc2)C1 (centres undefined) | 964 s |
| CC(C)c1cc(N2CCN(c3ccccn3)CC2)n2ncc(-c3ccccc3)c2n1 | 670 s |
| COC(=O)C(C)NC(=O)N1CCCN(C2=NS(=O)(=O)C(c3ccccc3)=C2C)CC1 (centres undefined) | 715 s |
| CN1C(=O)[C@H]2CN(Cc3cccc(Cl)c3F)C[C@H]2C1=O | 649 s |
| COc1ccc(-c2noc(C3CCCN3C(=O)c3ccsc3)n2)cc1OC (centres undefined) | 834 s |
| CCOC(=O)c1cccc(NC(=O)NC2CCN(c3ccc(F)cc3)C2=O)c1 (centres undefined) | 824 s |
| O=c1n(Cc2ccc(F)cc2)nc2c(S(=O)(=O)N3CCN(c4ccc(F)cc4)CC3)cccn12 | 991 s |
| CC1CCCN(c2ccc(-c3noc(CN4CCN(c5ccccc5)CC4)n3)cn2)C1 (centres undefined) | 1010 s |
| C=CCNC(=O)c1cn(-c2ccc(-c3nc(C(C)(C)C)no3)cn2)cn1 | 883 s |
| COc1ccc2c(c1)C(C(=O)N(Cc1ccc(N(C)C)cc1)c1ccc(C(C)C)cc1)CCC2 (centres undefined) | 1260 s |
| NC(N)=NC(=O)c1nc(Cl)c(N2CCCCCC2)nc1N | 758 s |
| CN(C)c1nc2ncn3c(=O)n(CC(=O)Nc4cccc(F)c4)nc3c2s1 | 686 s |
| CC1CCCCC1NC(=O)C1(C)Cn2c(cc3occc32)C(=O)N1Cc1cccnc1 (centres undefined) | 659 s |
| N#Cc1ccc(C(=O)NCCn2c(C(F)(F)F)nc3cccnc32)cc1 | 720 s |
| O=C(NCCc1nc(-c2ccccc2)no1)c1sc2cccc(Cl)c2c1Cl | 1200 s |
| O=C(NCCNC(=O)[C@@H]1CCCN1C(=O)c1ccc(F)cc1)c1ccc(F)cc1 | 656 s |
| CCc1ccc(C(=O)NCCc2nc3cccnc3n2C(C)C)cc1 | 717 s |
| Cc1cccn2cc(C(=O)N3CCN(c4ccc(Cl)cc4)CC3)nc12 | 946 s |
| COc1cc(NS(=O)(=O)c2c(C)nn(-c3ccc(-c4ccc(C)cc4)nn3)c2C)cc(OC)c1 | 1120 s |
| C=CCn1c(C)c(CC(=O)NC(C)CC)c(=O)n2nc(-c3ccccc3)nc12 (centres undefined) | 818 s |

| SMILES | RP-LC retention time |
| --- | --- |
| COc1cc(C(=O)NCC(c2ccc3c(c2)OCO3)N2CCN(C)CC2)cc(OC)c1OC (centres undefined) | 610 s |
| CC1=C(c2ccccc2)S(=O)(=O)N=C1N1CCCN(C(=O)c2cccc(Cl)c2)CC1 | 862 s |
| Cc1cccc(C)c1NC(=O)CSc1ccc(N2CCCC(C(=O)NC3CC3)C2)nn1 (centres undefined) | 628 s |
| Cc1ccc(-c2cn3ccccc3n2)cc1NS(=O)(=O)c1ccc(Br)cc1 | 710 s |
| O=C(CCc1c(-c2cccc(Cl)c2)nc2ccccn12)N1CCN(c2ccc(F)cc2)CC1 | 724 s |
| Cc1ccc(C(=O)N2CCC(n3c(=O)n(C)c4cncnc43)CC2)s1 | 659 s |
| O=C(Nc1ccccc1F)N1CCCC1c1nncn1-c1ccccc1 (centres undefined) | 683 s |
| Cc1noc(C)c1CC(=O)N(C)C1CCc2nn(CC3CC3)c(=O)n2CC1 (centres undefined) | 630 s |
| CCCc1noc(-c2ccc(=O)n(CC(=O)Nc3cc(C)cc(C)c3)c2)n1 | 902 s |
| O=C(O)Cn1c(-c2cccnc2)nc2ccccc21 | 564 s |
| Cc1cccc(CN2C[C@@H]3C(=O)N(CCCN4CCCC4=O)C(=O)[C@@H]3C2)c1 | 589 s |
| CN1CCC2(CC1)CN(C(=O)C1CCC1)Cc1ccccc1O2 | 619 s |
| CN(C)C(=O)Cn1c(=O)c2cccn2c2ccccc21 | 666 s |
| COc1cccc(S(=O)(=O)N2CCc3c(c(-c4nnc(-c5ccc(F)cc5)o4)nn3C)C2)c1 | 942 s |
| Cc1[nH]c(C(=O)N2CCC(CC(=O)NCCC(C)C)CC2)c(C)c1C | 813 s |
| COc1ccc(-c2cc(N3CCC(NC(=O)c4ccc5c(c4)OCO5)C3)n[nH]2)cc1 (centres undefined) | 690 s |
| O=C(CCn1nnc2cc(-c3noc(C4CCCCC4)n3)ccc21)N1CCOCC1 | 891 s |
| COc1ccc(-c2nnc(Cc3nc(-c4ccc(C)cc4)no3)o2)cc1 | 1010 s |
| COc1ccccc1NC(=O)CSc1nc2c(-c3ccccc3)csc2c(=O)n1C | 960 s |
| O=C(CNC(=O)c1cccc(Cl)c1)Nc1nc2ccccc2[nH]1 | 646 s |
| Cc1cnc(C(=O)N[C@@H]2CCC[C@@H]2C(=O)N2CCSCC2)cn1 | 633 s |
| Cc1cc(NC(=O)C(C)(C)C)nn1Cc1ccccc1 | 879 s |
| COC(=O)COC(=O)c1cn(-c2ccc(F)cc2)c(=O)c2ccccc12 | 919 s |

| SMILES | RP-LC retention time |
| --- | --- |
| Cc1oc(-c2ccc(C(=O)N3CCN(C)CC3)cc2)nc1CS(=O)(=O)c1ccccc1 | 608 s |
| CCOC(=O)c1cn(Cc2cccc(C)c2)c2nc(C)ccc2c1=O | 925 s |
| CCc1nnc(-c2ccc3ccn(CC(=O)Nc4ccc(C(=O)OC)cc4)c3c2)o1 | 811 s |
| CC(=O)Oc1ccc(OC(C)=O)c2c1CC1(C)OC1(C)C2 (centres undefined) | 703 s |
| CN(C)C(CNC(=O)Nc1cccs1)c1ccccc1Cl (centres undefined) | 562 s |
| O=C(CSc1nnnn1-c1cccc(C(F)(F)F)c1)N1CCOCC1 | 733 s |
| Cc1nn(-c2ccccc2)c2nc(N3CCCC(C(=O)NCc4ccc(F)cc4)C3)sc12 (centres undefined) | 806 s |
| N#Cc1cccc(NS(=O)(=O)c2cccc(-c3nc(-c4ccccc4)no3)c2)c1 | 1080 s |
| Cc1ccc(CNC2=NCCNC23CCN(S(=O)(=O)c2ccc(F)cc2)CC3)cc1 | 733 s |
| O=C(NCc1ccccc1)C1CCN(S(=O)(=O)c2cc(-c3noc(C4CC4)n3)cs2)CC1 | 935 s |
| Cc1noc2ncnc(N3CCC(C(=O)NCCN(C)C)CC3)c12 | 567 s |
| COCCCNC(=O)C1CCCN(c2nnc(C)c3c(C)n(-c4ccc(OC)cc4)nc23)C1 (centres undefined) | 633 s |
| Cc1csc(-n2nc(C)c(CC(=O)Nc3ccccc3F)c2C)n1 | 938 s |
| Cc1ccn(-c2ccc(C(=O)NC3CCCCC3)cn2)n1 | 885 s |
| Cc1ccc(CNC(=O)C2CCN(c3nccnc3Sc3ccccc3)CC2)o1 | 958 s |
| CCCNC(=O)N1CCC2(CCCCO2)CC1 | 602 s |
| CC1CCN(c2cc(-n3cnc(C(=O)N4CCN(c5ccccc5F)CC4)c3)ncn2)CC1 | 1090 s |
| COc1ccc(-c2nc(-c3nnn(-c4ccc(F)cc4)c3C)no2)cc1OC | 917 s |
| Cc1cc(=O)n(CC(=O)Nc2ccc(N(C)C)cc2)c(N2CCOCC2)n1 | 555 s |
| CCn1ncc(NC(=O)COc2ccccc2C)c(N2CCCCC2)c1=O | 1150 s |
| Cc1cc(-c2nnc(-c3ccccc3)o2)c(C)n1CC(=O)NCc1ccc(F)cc1F | 934 s |
| Cc1cccc(S(=O)(=O)NC2CCN(c3ccccc3)C2=O)c1 (centres undefined) | 875 s |
| CCN1CCN(CCNC(=O)C2CN(C(=O)c3cccs3)CC23CCCCC3)CC1 (centres undefined) | 589 s |

| SMILES | RP-LC retention time |
| --- | --- |
| Cc1ccc(C2Cn3nnc(-c4nc(-c5ccc(F)c(F)c5)no4)c3CO2)c(C)c1 (centres undefined) | 1230 s |
| CC(C)CNC(=O)N1CC(n2cc(C(=O)N3CCOCC3)nn2)C1 | 607 s |
| CCS(=O)(=O)NCC(c1cccnc1)N1CCN(c2ccccc2F)CC1 (centres undefined) | 561 s |
| CC(O)(CNC(=O)NC1CCCCC1)c1ccc2c(c1)OCO2 (centres undefined) | 709 s |
| CCc1nnc2ccc(-c3noc(-c4ccc(Cl)cc4)n3)cn12 | 1050 s |
| CCCNC(=O)c1cc2sc(C)c(CN3CCCCC3)c2[nH]1 | 629 s |
| COc1cccc(N2CCN(C(=O)C3CCN(c4ncnc5c4oc4ccccc45)CC3)CC2)c1 | 794 s |
| CCN1CCn2cc(S(=O)(=O)N3CCN(c4ccccc4Cl)CC3)cc2C1=O | 892 s |
| O=C1CCN(C(=O)C2(c3ccccc3)CC2)CCCCCCN1 | 721 s |
| NC(=O)C1CCN(C(=O)CCn2ccn3nc(-c4ccccc4)cc3c2=O)CC1 | 638 s |
| CCC1Oc2ccc(S(=O)(=O)N3CCC(C(=O)N(C)c4ccc(C)cc4)CC3)cc2NC1=O (centres undefined) | 837 s |
| CCOC(=O)c1c(C)oc2nc(C)nc(NCc3ccc(OC)cc3)c12 | 1080 s |
| O=C(c1ccccc1Cl)N1CCN(c2cnn3c(C4CC4)nnc3c2)CC1 | 590 s |
| CCS(=O)(=O)NCc1cccnc1Oc1ccccc1 | 788 s |
| COCCCNC(=O)C1CCCN(c2ncc(-c3cccc(F)c3)cn2)C1 (centres undefined) | 863 s |
| Cc1cccc(CCNC(=O)C2CCN(S(=O)(=O)N3CCOCC3)CC2)c1 | 769 s |
| Cc1ccc(-c2coc(-c3ccc(NC(=O)CC(C)C)cc3)n2)c(C)c1 | 1240 s |
| Cc1ccc(CC(=O)Nc2ccc(-c3nc(Cn4cccn4)c(C)o3)cc2)cc1 | 880 s |
| CCOc1cc(-c2nc(C3CC(=O)N(c4ccc(OC)cc4)C3)no2)cc(OCC)c1OCC (centres undefined) | 1040 s |
| O=C(COc1ccccc1F)NCCn1nc(-c2ccco2)ccc1=O | 675 s |
